Source: patent US5446157A, “Boron difluoride compounds useful in photodynamic therapy and production of laser light” (priority 1993, dated 1995)
Values joined by “and” are separate entries in the source; they are usually repeats but may differ in a detail not shown here. Equal entries are not always repeated. “Also recorded” adds a separate entry of the source. Structures can show the parent of a compound that is named as a salt.

Assays:
[1] = UV light absorption (λmax, log ε); type: physicochemical; settings: for log ε: solvent as for λmax (ethanol except where noted)
Protocol: Each recorded UV absorption was restricted to the highest wave length. Fluorescence quantum yields of the dyes were determined for ethanol solutions with excitation at 450 and 460 nm by reference to acridine orange, .PHI.0.46, in ethanol; for the dye 7p the reference was R-6G, <P 0.90. […] Melting points were obtained from a Mel-Temp II device and were uncorrected. The solvent for ^1 H NMR spectra was chloroform-d with tetramethylsilane as an internal standard. Elemental analyses were obtained from Midwest Micro Lab, Indianapolis, Ind. and Galbraith Laboratories, Inc., Knoxville, Tenn. Solvents were removed by rotary evaporation under reduced pressure unless indicated otherwise. Column chromatography was performed on silica gel.
5 × 10^-6 M in ethanol except where noted otherwise.

[2] = Fluorescence (λf, quantum yield); type: physicochemical; settings: for .PHI.f (fluorescence quantum yield): ethanol, excitation 450 and 460 nm, reference acridine orange
Protocol: Instruments for spectroscopic measurements included: Perkin-Elmer 1600 FTIR, Varian Gernini 300 NMR, Hewlett-Packard 5985 (70 eV) GC-MS, Cary 17 (UV), and Perkin-Elmer LS-5B Luminescence spectrometer. A dye laser was constructed and operated in the non-flowing (static) mode and had no tuning capability. […] Laser energy outputs were measured with an accuracy of ±5% by a Scientech 365 power and energy meter.
Light absorption, luminescence, and laser activity properties for the dyes 7 are described in Table VI. Each recorded UV absorption was restricted to the highest wave length. Fluorescence quantum yields of the dyes were determined for ethanol solutions with excitation at 450 and 460 nm by reference to acridine orange, .PHI.0.46, in ethanol; for the dye 7p the reference was R-6G, <P 0.90. Melting points were obtained from a Mel-Temp II device and were uncorrected. The solvent for ^1 H NMR spectra was chloroform-d with tetramethylsilane as an internal standard. Elemental analyses were obtained from Midwest Micro Lab, Indianapolis, Ind. and Galbraith Laboratories, Inc., Knoxville, Tenn. Solvents were removed by rotary evaporation under reduced pressure unless indicated otherwise. Column chromatography was performed on silica gel. Molecular weights were confirmed by EI-MS for the pyrrole 4j 193 and for laser dyes 7d 346, 7e 374, 7g 374, 7i 342, 7j 314 and 7x 360. IR absorption data satisfactorily supported structure assignments for the laser dyes 7.
^[b] 2 × 10^-4 M in ethanol except where noted otherwise.

Compound	log ε [1]	.PHI.f (fluorescence quantum yield) [2]	λmax ([1]; 5 × 10^-6 M in ethanol) [nm]	λf ([2]; 2 × 10^-4 M in ethanol) [nm]	also measured
CCOC(=O)C1=C(C)C2=C(C#N)c3c(C)c(C(=O)OCC)c(C)n3[B-](F)(F)[N+]2=C1C [Compound 7aa, diethyl 1,3,5,7-tetramethyl-8-cyanopyrromethene-2,6-dicarboxylate-BF2 complex]	4.98	0.82			λmax ([1]; 2 × 10^-4 M in p-dioxan): 556 nm; λf ([2]; 2 × 10^-4 M in p-dioxan): 589 nm
CCC1=C(C)C2=C(C#N)c3c(C)c(CC)c(C)n3[B-](F)(F)[N+]2=C1C [Compound 7bb, 1,3,5,7-Tetramethyl-2,6-diethyl-8-cyanopyrromethene-BF2 complex]	4.72	0.55			λmax ([1]; 2 × 10^-4 M in p-dioxan): 580 nm; λf ([2]; 2 × 10^-4 M in p-dioxan): 620 nm
CCCC1=C(C)C2=C(C)c3c(C)c(CCC)c(C)n3[B-](F)(F)[N+]2=C1C [Compound 7d, 2,6-Di-n-propyl-1,3,5,7,8-pentamethylpyrromethene-BF2 complex]	4.89	0.99	517	549	
CCCCC1=C(C)C2=C(C)c3c(C)c(CCCC)c(C)n3[B-](F)(F)[N+]2=C1C [Compound 7e]	4.92	0.90	518	550	
CC1=C(C(C)C)C(C)=[N+]2C1=C(C)c1c(C)c(C(C)C)c(C)n1[B-]2(F)F [Compound 7f]	4.85	0.67	516	548	
CC1=C(C(C)(C)C)C(C)=[N+]2C1=C(C)c1c(C)c(C(C)(C)C)c(C)n1[B-]2(F)F [Compound 7g]	4.83	0.77	525	567	
CC1=C2C=C3CCCCC3=[N+]2[B-](F)(F)n2c1cc1c2CCCC1 [Compound 7h, 2,3,6,7-bistetramethylene-8-methylpyrromethene-BF2 complex]	> 4.8 and 4.93		535	560	
CC1=C2CCCCC2=[N+]2C1=C(C)c1c(C)c3c(n1[B-]2(F)F)CCCC3 [Compound 7i]	> 4.8 and 4.91		522	552	
CC1=C2C3=C(CCC3)C(C)=[N+]2[B-](F)(F)n2c(C)c3c(c21)CCC3 [Compound 7j, 1,2,6,7-bistrimethylene-3,5,8-trimethylpyrromethene-BF2 complex]	> 4.8 and 4.82		512	535	
CCC1=C(CC)C(C)=[N+]2C1=C(C)c1c(CC)c(CC)c(C)n1[B-]2(F)F [Compound 7k, 1,2,6,7-tetraethyl-3,5,8-trimethylpyrromethene BF2 complex]	4.89	0.75	521	554	
CC1=C(c2ccccc2)C(C)=[N+]2C1=C(C)c1c(C)c(-c3ccccc3)c(C)n1[B-]2(F)F [Compound 7l]	4.90	0.43	519	559	
CC(=O)NC1=C(C)C2=C(C)c3c(C)c(NC(C)=O)c(C)n3[B-](F)(F)[N+]2=C1C [Compound 7m]	4.63	0.17			λmax ([1]; 5 × 10^-6 M in trifluoroethanol): 498 nm; λf ([2]; 2 × 10^-4 M in trifluoroethanol): 542 nm
COC1=C(C)C(C)=[N+]2C1=C(C)c1c(OC)c(C)c(C)n1[B-]2(F)F [Compound 7n, 1,7-dimethoxy-2,3,5,6,8-pentamethylpyrromethene-BF2 complex]	4.85	0.84	485	522	
CCC1=C(C)C2=C(CC)c3c(C)c(CC)c(C)n3[B-](F)(F)[N+]2=C1C [Compound 7o, 1,3,5,7-tetramethyl-2,6,8-triethylpyrromethene-BF2 complex]	4.92	0.84	520	546	
CCC1=C(C)C2=C(C(C)C)c3c(C)c(CC)c(C)n3[B-](F)(F)[N+]2=C1C [Compound 7p, 1,3,5,7-tetramethyl-2,6-diethyl-8-isopropylpyrromethene-BF2 complex]	4.84		527	562	fluorescence [2]: large reduction in fluorescence; also recorded: absence of fluorescence; .PHI.f ([2]; with reference to R-6G .PHI. 0.90): 0.07
CCC1=C(C)C2=C(C3CCCCC3)c3c(C)c(CC)c(C)n3[B-](F)(F)[N+]2=C1C [Compound 7q, 1,3,5,7-tetramethyl-2,6-diethyl-8-cyclohexylpyrromethene-BF2 complex]	4.81	0.23	516	526	
CCC1=C(C)C2=C(COC(C)=O)c3c(C)c(CC)c(C)n3[B-](F)(F)[N+]2=C1C [Compound 7r]	4.89	0.74	543	575	
CCC1=C(C)C2=C(c3ccc(N(C)C)cc3)c3c(C)c(CC)c(C)n3[B-](F)(F)[N+]2=C1C [Compound 7s]	4.95	0.04	519	575	
COc1ccc(C2=C3C(C)=CC(C)=[N+]3[B-](F)(F)n3c(C)cc(C)c32)cc1 [Compound 7t, 1,3,5,7-tetramethyl-8-p-methoxyphenylpyrromethene-BF2 complex]	4.86	0.63	497	521	
CCC1=C(c2ccccc2)C2=Cc3c(-c4ccccc4)c(CC)c(C)n3[B-](F)(F)[N+]2=C1C [Compound 7u]	5.00	0.60	540	564	
CC1=[N+]2C(=Cc3c(-c4ccccc4)c(-c4ccccc4)c(C)n3[B-]2(F)F)C(c2ccccc2)=C1c1ccccc1 [Compound 7v, 1,2,6,7-tetraphenyl-3,5-dimethylpyrromethene-BF2 complex]	4.91	0.69	552	590	
CC1=[N+]2C(=Cc3c(-c4ccccc4)cc(C)n3[B-]2(F)F)C(c2ccccc2)=C1 [Compound 7w, 1,7-diphenyl-3,5-dimethylpyrromethene-BF2 complex]	4.92	0.61	521	551	
CCC1=C(C)C(=Cc2[nH]c(C)c(CC)c2C)N=C1C [Compound 9, 3,5,3',5'-tetramethyl-4,4'-diethylpyrromethene hydrobromide, reference compound]					.PHI.f ([2]; solvent not stated): 4.3×10^-4
CCC1=C(C)C2=Cc3c(C)c(CC)c(C)n3[B-](CC)(CC)[N+]2=C1C [Compound 10, 1,3,5,7-tetramethyl-2,6-diethylpyrromethene-B(CH2 CH3)2 complex, reference compound]					.PHI.f ([2]; solvent not stated): 0.31
CCC1=C(C)C2=Cc3c(C)c(CC)c(C)n3[B-](F)(F)[N+]2=C1C [Compound 11]					.PHI.f ([2]; solvent not stated): 0.81
Cc1nc2n(c1C)[B-](F)(F)[n+]1c-2[nH]c(C)c1C [Compound 21-BF3]					.THETA.f ([2]; Lewis acid salt 21-BF3): 0.93; λf ([2]; Lewis acid salt 21-BF3): 377 nm
